Earlier results as cited in US11529445B2, “Methods and apparatus for kidney dialysis and extracorporeal detoxification” (HIBAR Microsciences LLC, priority 2013, dated 2022).

Test system: Connexin-43
Conditions: cell culture models; concentrations commonly found among ESRD patients

Cc1ccc(O)cc1 [p-cresol]
degradation of Connexin-43 within cardiac gap junctions: dose-dependent degradation of Connexin-43
